{"source": "patent US12350247B2", "about": "“Use of APE1/Ref-1 inhibitors for treatment of retinal diseases” (Indiana University Research and Technology Corporation, priority 2017, dated 2025)", "key": {"[1]": {"tested_on": "Pa03C", "test": "Monolayer cytotoxicity under hypoxia (alamarBlue)", "format": "cell-based", "settings": "Homo sapiens, N = 3, read-out: LC50 (the source's name)", "text": "(§1) To determine target selectivity, analogs of APX3330, APX2009 and APX2014, and an analog of SLC-0111, FC12-531A, were used."}, "[2]": {"tested_on": "Panc10.05", "test": "Monolayer cytotoxicity under hypoxia (alamarBlue)", "format": "cell-based", "settings": "Homo sapiens, Panc1005, Panc10.05, N = 3, read-out: LC50 (the source's name)", "text": "as §1"}, "[3]": {"tested_on": "human carcinoma colon cell line HCT-116", "test": "Alamar blue cytotoxicity combination assay (CalcuSyn)", "format": "cell-based", "method": "HTC-116 (Yunhua Liu) was seeded in a 96-well tissue culture plate at 2000 cells/well in DMEM+10% FBS and grown overnight at 37° C., 5% CO2. Drug Media DMEM+5% FBS was added at dosages of APX3330 (Apexian) in a 5-point spread from 75 uM to 6.3 uM and spiked with CPI-613 (Apexbio Technology) at 75 uM, or 50 uM, or alone for single agent. Cells were incubated for 72 hours at 37° C., 5% CO2. Media was exchanged with DMEM+5% FBS+10% Alamar blue fluorescent cell viability indicator (INVITROGEN™) and incubated 4 hours at 37° C., 5% CO2 and then read on a fluorescent reader (SYNERGY™ H4 BioTek). […] depicts Chou-Talalay Index (CI) of dose combinations (CalcuSyn). FIG. 32E depicts synergistic drug combinations (CalcuSyn) of APX3330 spiked with 50 uM CPI-613 or 75 uM CPI-613. […] Data shown is the average of 3 separate cytotoxicity assays; each assay normalized to media only control.\nHTC-116 (Yunhua Liu) was seeded in a 96-well tissue culture plate at 2000 cells/well in DMEM+10% FBS and grown overnight at 37° C., 5% CO2. Drug Media DMEM+5% FBS was added at dosages of APX3330 (Apexian) from 100 uM to 0.4 uM in a 10-point spread and spiked with CPI-613 (Apexbio Technology) at 100 uM, or 75 uM, or alone for single agent. Cells were incubated for 72 hours at 37° C., 5% CO2. Media was exchanged with DMEM+5% FBS+10% Alamar blue fluorescent cell viability indicator (INVITROGEN™) and incubated 4 hours at 37° C., 5% CO2 and then read on a fluorescent reader (SYNERGY™ H4 BioTek). […] FIG. 33D depicts Chou-Talalay Index (CI) of dose combinations (CalcuSyn). FIG. 33E depicts synergistic drug combinations (CalcuSyn) of APX3330 spiked with 100 uM CPI-613 or 75 uM CPI-613. […] Data shown is the average of 3 separate cytotoxicity assays; each assay normalized to media only control.\nHTC-116 (Yunhua Liu) was seeded in a 96-well tissue culture plate at 2000 cells/well in DMEM+10% FBS and grown overnight at 37° C., 5% CO2. Drug Media DMEM+5% FBS was added at dosages of APX2014 (Apexian) in a 5-point spread from 25 uM to 1.6 uM and spiked with CPI-613 (Apexbio Technology) at 75 uM, or 50 uM, or alone for single agent. Cells were incubated for 72 hours at 37° C., 5% CO2. Media was exchanged with DMEM+5% FBS+10% Alamar blue fluorescent cell viability indicator (INVITROGEN™) and incubated 4 hours at 37° C., 5% CO2 and then read on a fluorescent reader (SYNERGY™ H4 BioTek). […] FIG. 34D depicts Chou-Talalay Index (CI) of dose combinations (CalcuSyn). FIG. 34E depicts synergistic drug combinations (CalcuSyn) of APX2014 spiked with 50 uM CPI-613 or 75 uM CPI-613. Drug combination synergy could not be ascertained at APX2014 dosages when spiked with 50 uM CPI-613. […] Data shown is the average of 3 separate cytotoxicity assays; each assay normalized to media only control.\nHTC-116 (Yunhua Liu) was seeded in a 96-well tissue culture plate at 2000 cells/well in DMEM+10% FBS and grown overnight at 37° C., 5% CO2. Drug Media DMEM+5% FBS was added at dosages of APX3330 (Apexian) from 100 uM to 0.4 uM in a 10-point spread and spiked with CB-839 (Sigma-Aldrich) at 1000 nM, or 500 nM, or alone for single agent. Cells were incubated for 72 hours at 37° C., 5% CO2. Media was exchanged with DMEM+5% FBS+10% Alamar blue fluorescent cell viability indicator (INVITROGEN™) and incubated 4 hours at 37° C., 5% CO2 and then read on a fluorescent reader (SYNERGY™ H4 BioTek). FIG. 35A depicts APX3330 and CB-839 single agent effects. FIG. 35B depicts APX3330 and CB-839 synergistic combo effects. […] FIG. 35E depicts synergistic drug combinations (CalcuSyn) of APX3330 spiked with 1000 nM CB-839 or 500 nM CB-839 (5-pt only). […] Data shown is the average of 3 separate cytotoxicity assays; each assay normalized to media only control."}, "[4]": {"tested_on": "pancreatic tumor", "test": "Xenograft model, APX3330 with gemcitabine", "format": "in vivo", "settings": "APX3330 (25 mg/kg) combined with gemcitabine (35 mg/kg)", "text": "The data in FIG. 14C is tumor volume at sacrifice. Combination therapy was well-tolerated."}, "[5]": {"tested_on": "mouse C26 colon cancer cells", "test": "Colon cancer orthotopic tumors, oxaliplatin with APX3330", "format": "in vivo, mice", "method": "Immune competent mice were injected with mouse C26 colon cancer cells in the caecum (FIG. 29A). Animals were treated with either oxaliplatin or oxaliplatin with APX3330 and tumor size determined compared to vehicle controls (FIG. 29B)."}, "[6]": {"tested_on": "murine KPC cells", "test": "Alamar blue proliferation-based assay", "format": "cell-based", "settings": "3 days incubation"}, "[7]": {"tested_on": "Panc10.05", "test": "3D tumor spheroid culture growth (fluorescence intensity)", "settings": "read-out: LC50; 3D Cultures, Tumor Alone, Panc10.05, D12 curves"}}}
{"compound": "CCCCCCCCC/C(=C\\C1=C(C)C(=O)C(OC)=C(OC)C1=O)C(=O)O", "note": "[APX3330]", "values": [{"measurement": "CC50", "setting": "[1]", "result": 50.2, "unit": "µM"}, {"measurement": "CC50", "setting": "[2]", "result": 40.3, "unit": "µM"}, {"measurement": "drug combination synergy (Chou-Talalay, CalcuSyn)", "setting": "[3]; APX3330 75 uM and 50 uM spiked with 50 uM CPI-613, 5-point spread", "result": "synergy was observed"}, {"measurement": "drug combination synergy (Chou-Talalay, CalcuSyn)", "setting": "[3]; APX3330 100 uM-12.5 uM spiked with 75 uM CPI-613, 10-point spread", "result": "Synergy was observed"}, {"measurement": "drug combination synergy (Chou-Talalay, CalcuSyn)", "setting": "[3]; APX3330 100 uM-25 uM spiked with 1000 nM CB-839", "result": "synergy was observed"}, {"measurement": "drug combination synergy (Chou-Talalay, CalcuSyn)", "setting": "[3]; APX3330 100 uM-50 uM spiked with 500 nM CB-839", "result": "Synergy was observed"}, {"measurement": "drug combination synergy (Chou-Talalay, CalcuSyn)", "setting": "[3]; all APX3330 dosages (100 uM to 0.4 uM) spiked with 100 uM CPI-613, 10-point spread", "result": "synergy was observed"}, {"measurement": "drug combination synergy (Chou-Talalay, CalcuSyn)", "setting": "[3]; all but one APX3330 dosage (6.3 uM), spiked with 75 uM CPI-613, 5-point spread", "result": "Synergy was observed"}, {"measurement": "tolerability of combination therapy", "setting": "[4]", "result": "well-tolerated"}, {"measurement": "tumor volume at sacrifice vs single agents alone", "setting": "[4]", "result": "significantly decreased tumor volume"}, {"measurement": "oxaliplatin induced loss of myenteric neurons in the colon", "setting": "[5]; CRC mice", "result": "alleviated oxaliplatin induced loss of myenteric neurons"}, {"measurement": "tumor cell killing vs oxaliplatin alone", "setting": "[5]; oxaliplatin with APX3330", "result": "dramatic and significantly increased tumor cell killing"}, {"measurement": "cytotoxicity in combination with Napabucasin", "setting": "[6]", "result": "enhancement of Napa-induced cytotoxicity"}, {"measurement": "CC50", "setting": "[7]", "result": 44.5, "unit": "µM"}]}
